Data published in the NIST ThermoML archive (doi:10.1016/j.fluid.2011.11.005).

Assay: excess molar enthalpy (molar enthalpy of mixing); xn = mol fraction of the nth substance listed
Conditions: 101 kPa, Liquid, Flow calorimetry

C=CCCCC [hex-1-ene] + CCCCOCCCC
excess molar enthalpy [kcal/mol]
Conditions | 298.15 K | 313.15 K
x2 = 0.0503 | -0.000741 | -0.001
x2 = 0.1001 | -0.00139 | –
x2 = 0.15 | – | -0.00296
x2 = 0.1501 | -0.00258 | –
x2 = 0.2 | -0.0033 | -0.00382
x2 = 0.25 | -0.00402 | -0.00447
x2 = 0.2997 | – | -0.00497
x2 = 0.2998 | -0.00452 | –
x2 = 0.3502 | -0.00488 | –
x2 = 0.3503 | – | -0.0054
x2 = 0.3994 | -0.00519 | –
x2 = 0.3995 | – | -0.00566
x2 = 0.4502 | -0.00533 | –
x2 = 0.4503 | – | -0.00581
x2 = 0.4995 | -0.00543 | –
x2 = 0.4997 | – | -0.00586
x2 = 0.5494 | -0.00533 | –
x2 = 0.5495 | – | -0.00578
x2 = 0.5996 | -0.00511 | –
x2 = 0.5997 | – | -0.00557
x2 = 0.6491 | -0.0048 | –
x2 = 0.6493 | – | -0.00521
x2 = 0.7001 | -0.00437 | –
x2 = 0.7002 | – | -0.00468
x2 = 0.7491 | -0.00382 | –
x2 = 0.7492 | – | -0.00425
x2 = 0.7995 | -0.00296 | –
x2 = 0.7996 | – | -0.00361
x2 = 0.8501 | -0.00232 | -0.00284
x2 = 0.8996 | -0.00155 | -0.00203
x2 = 0.9504 | -0.000717 | -0.00108

CC(C)CC(C)(C)C [2,2,4-trimethylpentane] + CCCCO
313.15 K
Conditions | excess molar enthalpy [kcal/mol]
x1 = 0.0502 | 0.0251
x1 = 0.1001 | 0.0487
x1 = 0.1505 | 0.072
x1 = 0.2003 | 0.0939
x1 = 0.2505 | 0.115
x1 = 0.3001 | 0.134
x1 = 0.3504 | 0.152
x1 = 0.4001 | 0.167
x1 = 0.4499 | 0.181
x1 = 0.5008 | 0.192
x1 = 0.5501 | 0.2
x1 = 0.5999 | 0.205
x1 = 0.6498 | 0.207
x1 = 0.7 | 0.206
x1 = 0.75 | 0.201
x1 = 0.7996 | 0.193
x1 = 0.8502 | 0.179
x1 = 0.9001 | 0.159
x1 = 0.9506 | 0.125

C1CCCCC1 [cyclohexane] + CCCCO
313.15 K
Conditions | excess molar enthalpy [kcal/mol]
x1 = 0.0505 | 0.0234
x1 = 0.1001 | 0.0459
x1 = 0.1505 | 0.0679
x1 = 0.2 | 0.0885
x1 = 0.2505 | 0.108
x1 = 0.2999 | 0.126
x1 = 0.3501 | 0.143
x1 = 0.4003 | 0.158
x1 = 0.4504 | 0.171
x1 = 0.5003 | 0.182
x1 = 0.55 | 0.19
x1 = 0.5995 | 0.195
x1 = 0.6499 | 0.197
x1 = 0.7 | 0.194
x1 = 0.7499 | 0.188
x1 = 0.7995 | 0.178
x1 = 0.8499 | 0.163
x1 = 0.8999 | 0.142
x1 = 0.9496 | 0.109

C=CCCCC [hex-1-ene] + CCCCO
excess molar enthalpy [kcal/mol]
Conditions | 298.15 K | 313.15 K
x1 = 0.05 | 0.0104 | 0.0188
x1 = 0.1001 | – | 0.0398
x1 = 0.1002 | 0.0234 | –
x1 = 0.1505 | – | 0.0602
x1 = 0.1506 | 0.0372 | –
x1 = 0.2002 | – | 0.0812
x1 = 0.2003 | 0.0527 | –
x1 = 0.2499 | – | 0.102
x1 = 0.25 | 0.0676 | –
x1 = 0.3004 | – | 0.121
x1 = 0.3005 | 0.0829 | –
x1 = 0.3498 | – | 0.141
x1 = 0.35 | 0.0967 | –
x1 = 0.4 | – | 0.158
x1 = 0.4001 | 0.11 | –
x1 = 0.4498 | – | 0.174
x1 = 0.4499 | 0.123 | –
x1 = 0.5001 | – | 0.188
x1 = 0.5003 | 0.134 | –
x1 = 0.5501 | – | 0.198
x1 = 0.5503 | 0.143 | –
x1 = 0.5995 | – | 0.206
x1 = 0.5996 | 0.149 | –
x1 = 0.6504 | – | 0.21
x1 = 0.6505 | 0.154 | –
x1 = 0.7005 | – | 0.211
x1 = 0.7006 | 0.155 | –
x1 = 0.7498 | – | 0.207
x1 = 0.7499 | 0.153 | –
x1 = 0.8005 | – | 0.2
x1 = 0.8006 | 0.147 | –
x1 = 0.8503 | 0.138 | 0.187
x1 = 0.9002 | 0.123 | 0.166
x1 = 0.9501 | 0.0969 | 0.127

CCCCO [butan-1-ol] + Cc1ccccc1
excess molar enthalpy [kcal/mol]
Conditions | 298.15 K | 313.15 K
x2 = 0.0504 | 0.0245 | 0.0341
x2 = 0.0998 | 0.0498 | –
x2 = 0.0999 | – | 0.0685
x2 = 0.1501 | 0.0753 | 0.102
x2 = 0.2011 | 0.101 | 0.136
x2 = 0.251 | 0.125 | –
x2 = 0.2512 | – | 0.166
x2 = 0.2999 | 0.148 | –
x2 = 0.3 | – | 0.195
x2 = 0.3495 | 0.169 | –
x2 = 0.3496 | – | 0.221
x2 = 0.3998 | 0.189 | –
x2 = 0.4 | – | 0.243
x2 = 0.4509 | 0.207 | –
x2 = 0.4511 | – | 0.264
x2 = 0.5009 | 0.221 | –
x2 = 0.501 | – | 0.279
x2 = 0.5495 | 0.231 | –
x2 = 0.5496 | – | 0.291
x2 = 0.6009 | 0.239 | –
x2 = 0.601 | – | 0.299
x2 = 0.6509 | 0.242 | –
x2 = 0.6511 | – | 0.302
x2 = 0.6996 | 0.24 | –
x2 = 0.6998 | – | 0.298
x2 = 0.7512 | 0.234 | –
x2 = 0.7513 | – | 0.29
x2 = 0.7992 | 0.222 | 0.274
x2 = 0.85 | 0.203 | 0.249
x2 = 0.8993 | 0.174 | 0.21
x2 = 0.9493 | 0.124 | 0.143

CC1CCCCC1 [methylcyclohexane] + CCCCO
excess molar enthalpy [kcal/mol]
Conditions | 298.15 K | 313.15 K
x1 = 0.0498 | 0.0151 | 0.0212
x1 = 0.1 | 0.0301 | 0.0424
x1 = 0.1505 | 0.0449 | 0.0629
x1 = 0.2005 | 0.0588 | 0.0826
x1 = 0.2506 | 0.0725 | –
x1 = 0.2507 | – | 0.101
x1 = 0.3 | 0.0852 | 0.119
x1 = 0.3502 | 0.0974 | 0.135
x1 = 0.4002 | 0.109 | 0.15
x1 = 0.45 | – | 0.163
x1 = 0.4501 | 0.119 | –
x1 = 0.5006 | – | 0.174
x1 = 0.5007 | 0.127 | –
x1 = 0.5497 | 0.134 | 0.182
x1 = 0.6004 | 0.138 | 0.188
x1 = 0.6505 | 0.14 | 0.19
x1 = 0.6999 | 0.14 | –
x1 = 0.7 | – | 0.189
x1 = 0.7498 | 0.136 | 0.184
x1 = 0.7999 | 0.129 | –
x1 = 0.8 | – | 0.176
x1 = 0.8504 | 0.118 | 0.162
x1 = 0.8997 | 0.104 | 0.144
x1 = 0.9505 | 0.0814 | 0.112

CC1CCCCC1 [methylcyclohexane] + CCCCOCCCC
excess molar enthalpy [kcal/mol]
Conditions | 298.15 K | 313.15 K
x2 = 0.0497 | 0.0055 | 0.00497
x2 = 0.1003 | 0.0103 | 0.00908
x2 = 0.1501 | 0.0137 | 0.0126
x2 = 0.1997 | 0.0165 | –
x2 = 0.1998 | – | 0.0153
x2 = 0.2501 | 0.0189 | 0.0175
x2 = 0.3002 | 0.0207 | 0.0193
x2 = 0.3499 | 0.0218 | –
x2 = 0.35 | – | 0.0203
x2 = 0.3993 | 0.0225 | –
x2 = 0.3994 | – | 0.0211
x2 = 0.45 | 0.0228 | –
x2 = 0.4501 | – | 0.0215
x2 = 0.4993 | 0.0226 | 0.0213
x2 = 0.5499 | 0.022 | –
x2 = 0.55 | – | 0.0207
x2 = 0.5999 | 0.021 | –
x2 = 0.6 | – | 0.0197
x2 = 0.6491 | 0.0196 | –
x2 = 0.6492 | – | 0.0184
x2 = 0.6997 | 0.0177 | 0.0168
x2 = 0.7493 | 0.0156 | 0.0147
x2 = 0.8002 | 0.0131 | 0.0123
x2 = 0.8501 | 0.0103 | 0.00966
x2 = 0.9001 | 0.00707 | 0.00674
x2 = 0.95 | 0.00356 | –
x2 = 0.9501 | – | 0.00339
